Patent US20260070945A1, “MACROCYCLIC IMMUNOMODULATORS” (Bristol-Myers Squibb Company, priority 2022, published 2026)
pIC50: −log10 of the molar value. Where a SMILES comes first, the peptide text is derived from it. Bridges are numbered along the chain shown (N, C = ends). [ ]: non-standard residue; d: D form. The star is where a group is joined. Phe(4-COOH) = N[C@@H](Cc1ccc(C(=O)O)cc1)C(=O)O; Bip = N[C@@H](Cc1ccc(-c2ccccc2)cc1)C(=O)O; hArg = N=C(N)NCCCC[C@H](N)C(=O)O; 4Pal = N[C@@H](Cc1ccncc1)C(=O)O; Cha = N[C@@H](CC1CCCCC1)C(=O)O; Chg = N[C@H](C(=O)O)C1CCCCC1; Carboxymethyl = O=C(O)C*; NMeA = CN[C@@H](C)C(=O)O; Aun = NCCCCCCCCCCC(=O)O; Dab = NCC[C@H](N)C(=O)O; AEEA = NCCOCCOCC(=O)O

molecular target: T1, PD-1/PD-L1 interaction (PE-labeled human PD-L1-Ig binding to Jurkat cell line over-expressing human PD-1) (Homo sapiens, UniProt Q15116); experiment: Jurkat-PD-1 Cell Binding High-Content Screening Assay (CBA); conditions: Jurkat-hPD-1 cells, PE-labeled PD-L1-Ig 20 nM final; read-out: Jurkat HPD1 PDL1 IC50
T1 construct: expressed in transfected cells; host or cells: Jurkat
T1 sequence (Q15116 25-288): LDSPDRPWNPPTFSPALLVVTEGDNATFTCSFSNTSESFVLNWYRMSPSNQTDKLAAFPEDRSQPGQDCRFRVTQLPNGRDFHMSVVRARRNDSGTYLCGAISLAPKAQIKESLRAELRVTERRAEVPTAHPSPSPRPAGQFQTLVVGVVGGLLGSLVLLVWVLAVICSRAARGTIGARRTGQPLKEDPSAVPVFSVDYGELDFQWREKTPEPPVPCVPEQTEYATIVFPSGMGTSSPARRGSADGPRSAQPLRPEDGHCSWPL
Summary of the method: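 Jurkat-hPD-1 cells (8×10^3/well) in DMEM with 10% fetal calf serum were preincubated with compound for 2 h at 37 °C. PE-labeled PD-L1-Ig was then added at 20 nM final for 1 h. Cells were fixed in paraformaldehyde with Hoechst 33342, washed and imaged by high-content imaging.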

Compared with `CC(C)C[C@H]1NC(=O)[C@H](C)N(C)C(=O)[C@H](C(C)C)NC(=O)[C@H](Cc2ccc(-c3ccccc3)cc2)NC(=O)[C@H](C(C)C)NC(=O)[C@H](Cc2c[nH]c3ccccc23)NC(=O)[C@H](CC(=O)O)NC(=O)[C@H](Cc2ccc(OCC(=O)O)cc2)NC(=O)[C@H](CCCCNC(=N)N)NC(=O)CSC[C@@H](C(=O)N[C@@H](CCCCN)C(=O)NCCOCCOCC(=O)NCCCCCCCCCCC(=O)O)NC(=O)[C@H](CO)NC(=O)[C@H](C(C)C)NC(=O)[C@H](CC2CCCCC2)NC(=O)[C@H](CCN)NC1=O` [Example 2089] ({CH2CO}-[hArg]Y(Carboxymethyl)DWV[Bip]V[NMeA][dL][Dab][Cha]VSCK[AEEA][Aun]-OH; thioether N-14), `CC(C)C[C@H]1NC(=O)[C@H](C)N(C)C(=O)[C@H](C(C)C)NC(=O)[C@H](Cc2ccc(-c3ccccc3)cc2)NC(=O)[C@H](C2CCCCC2)NC(=O)[C@H](Cc2c[nH]c3ccccc23)NC(=O)[C@H](CC(=O)O)NC(=O)[C@H](CCCCNC(=N)N)NC(=O)[C@H](Cc2ccc(OCC(=O)O)cc2)NC(=O)CSC[C@@H](C(=O)N[C@@H](CCCCN)C(=O)NCCOCCOCC(=O)NCCCCCCCCCCC(=O)O)NC(=O)[C@H](CO)NC(=O)[C@H](C(C)C)NC(=O)[C@H](CC2CCCCC2)NC(=O)[C@H](CC(=O)O)NC1=O` [Example 2093] ({CH2CO}-Y(Carboxymethyl)[hArg]DW[Chg][Bip]V[NMeA][dL]D[Cha]VSCK[AEEA][Aun]-OH; thioether N-14) is 0.23 log units lower in pIC50: 7.91 for the first, 7.68 for the second.

`CC(C)C[C@H]1NC(=O)[C@H](C)N(C)C(=O)[C@H](C(C)C)NC(=O)[C@H](Cc2ccc(-c3ccccc3)cc2)NC(=O)[C@H](C2CCCCC2)NC(=O)[C@H](Cc2c[nH]c3ccccc23)NC(=O)[C@H](CC(=O)O)NC(=O)[C@H](Cc2ccc(OCC(=O)O)cc2)NC(=O)[C@H](Cc2ccncc2)NC(=O)CSC[C@@H](C(=O)N[C@@H](CCCCN)C(=O)NCCOCCOCC(=O)NCCCCCCCCCCC(=O)O)NC(=O)[C@H](CO)NC(=O)[C@H](C(C)C)NC(=O)[C@H](CC2CCCCC2)NC(=O)[C@H](CC(=O)O)NC1=O` [Example 2090] ({CH2CO}-[4Pal]Y(Carboxymethyl)DW[Chg][Bip]V[NMeA][dL]D[Cha]VSCK[AEEA][Aun]-OH; thioether N-14) and `CC(C)C[C@H]1NC(=O)[C@H](C)N(C)C(=O)[C@H](C(C)C)NC(=O)[C@H](Cc2ccc(-c3ccccc3)cc2)NC(=O)[C@H](C2CCCCC2)NC(=O)[C@H](Cc2c[nH]c3ccccc23)NC(=O)[C@H](CC(=O)O)NC(=O)[C@H](Cc2ccncc2)NC(=O)[C@H](Cc2ccc(OCC(=O)O)cc2)NC(=O)CSC[C@@H](C(=O)N[C@@H](CCCCN)C(=O)NCCOCCOCC(=O)NCCCCCCCCCCC(=O)O)NC(=O)[C@H](CO)NC(=O)[C@H](C(C)C)NC(=O)[C@H](CC2CCCCC2)NC(=O)[C@H](CC(=O)O)NC1=O` [Example 2092] ({CH2CO}-Y(Carboxymethyl)[4Pal]DW[Chg][Bip]V[NMeA][dL]D[Cha]VSCK[AEEA][Aun]-OH; thioether N-14) are within 0.2 log units of each other in pIC50: 7.32 for the first, 7.14 for the second.

`CC(C)C[C@@H]1NC(=O)[C@H](Cc2c[nH]c3ccccc23)NC(=O)[C@H](CC(=O)O)NC(=O)[C@H](Cc2ccc(C(=O)O)cc2)NC(=O)[C@H](Cc2ccc(OCC(=O)O)cc2)NC(=O)CSC[C@@H](C(=O)N[C@@H](CCN)C(=O)NCCOCCOCC(=O)NCCCCCCCCCCC(=O)O)NC(=O)[C@H](CO)NC(=O)[C@H](C(C)C)NC(=O)[C@H](CC2CCCCC2)NC(=O)[C@H](CCN)NC(=O)[C@@H](CC(C)C)NC(=O)[C@H](C)N(C)C(=O)[C@H](C(C)C)NC(=O)[C@H](Cc2ccc(-c3ccccc3)cc2)NC1=O` [Example 2094] ({CH2CO}-Y(Carboxymethyl)[Phe(4-COOH)]DWL[Bip]V[NMeA][dL][Dab][Cha]VSC[Dab][AEEA][Aun]-OH; thioether N-14) gave a pIC50 of 8.02.
